Laboratory results from patent US7947854B2, “Bis-cationic compounds and use thereof” (The University of Sydney, priority 2003, dated 2011).
Values after ≈ are worked out from the molar mass of the structure shown. Values joined by “and” are separate entries in the source; they are usually repeats but may differ in a detail not shown here. Identical values can stand only once.

Key:
[1] = system: secreted phospholipase B (PLB activity); assay: Radiometric assay, secreted PLB activity; assay type: biochemical, Cryptococcus neoformans H99
Method in brief: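 Secreted enzyme was taken from cell-free supernatant of Cryptococcus isolate H99 cells incubated 24 h at 37° C. Reactions at 37° C, pH 4.0 imidazole acetate, used 800 μM DPPC with [14C]-dipalmitoyl PC and 1 μg protein for 22 min. PLB was measured as radiolabelled PC loss by TLC, with inhibition expressed versus inhibitor-free control; compounds were tested at 25 and 250 μM, then 2.5 and 0.25 μM.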

[2] = system: secreted phospholipase B (LPL/LPTA activities); assay: Radiometric assay, secreted LPL and LPTA activities (Lyso assay); assay type: biochemical, Cryptococcus neoformans H99
Experimental: Fungal isolates and media. […] Isolate H99 was kindly supplied by Dr. Gary Cox (Duke University Medical Center, Durham, N.C., USA), and subcultured onto Sabouraud dextrose agar (SDA) at 30° C.
Preparation of supernatants containing secreted phospholipase activities. Isolate H99 was grown to confluence on SDA in 16 cm diameter Petri dishes for 72 h at 30° C. in air. Cells scraped from 10-20 dishes were washed sequentially with isotonic saline and imidazole buffer (10 mM imidazole, 2 mM CaCl2, 2 mM Mg Cl2, 56 mM D-Glucose, made up in isotonic saline, pH 5.5), resuspended in a volume of this buffer of about 10% of the cell volume, and incubated for 24 h at 37° C. The cell-free supernatant was separated by centrifugation as previously described and stored at −70° C.
Secreted LPL and LPTA activities were measured simultaneously in a reaction mixture containing 1-[^14C]palmitoyl lyso-PC (25,000 dpm) and carrier lyso-PC (final concentration 200 μM) in assay buffer. The reaction time was […] with 1 μg of total protein and LPL activity was measured by the rate of loss of 1-[^14C]palmitoyl lyso-PC with release of radiolabelled fatty acids. LPTA activity was estimated from the rate of formation of radiolabelled PC.
All reactions were terminated by adding 0.5 mL of chloroform:methanol (2:1 v/v). The reaction products were extracted by the method as disclosed in Bligh, E. C. and W. J. Dyer. 1959 ‘A rapid method of total lipid extraction and purification.’ Can. J. Biochem. Physiol. 37:911-917, separated by TLC and quantified as previously described. In the case of PLC activity, the TLC plates were developed in petroleum ether (BP 60-80° C.): diethyl ether: acetic acid (90:15:1, v/v/v) instead of chloroform:methanol:water (65:25:4, v/v/v).
Preparation of inhibitors and use in assays. The following compounds were tested (for structures, see FIG. 2): compound 1, 1,12-bis(tributylphosphonium)dodecane dibromide (Fluka AG, Buchs, Switzerland); compound 2, 1,10-bis(tributylammonium)-decane dibromide; compound 3, 1,12-bis(tributylammonium)do-decane dibromide (both synthesised in-house); compound 4, 1,10-bis(trimethylammonium)decane dibromide [“decamethonium”] (Sigma, St. Louis Mo., USA). All compounds were prepared as stock solutions of 700 μM in assay buffer containing 5 mM EDTA, which was then diluted serially with buffer to obtain solutions of 70, 7, 0.7 and 0.07 μM. In each assay, 45 μL of these solutions was used, and the final volume of 125 μL was made up of substrate, enzyme and buffer. The radiometric assay was carried out as above. Inhibition was calculated as the percent of substrates (DPPC or Lyso-PC) remaining in the case of PLB and LPL activities, or of DPPC produced, in the case of the LPTA activity. The amounts converted, or produced, in the inhibitor-free control were normalised to 100%, and the inhibition calculated against it. All assays were done in triplicate.
Under these conditions only PLB, LPL and LPTA activities (both secreted and cell-associated) were measured. Initially, compounds deemed to be potential inhibitors were assayed at 25 and 250 μM. Those showing some inhibition were then also assayed at 2.5 and 0.25 μM.

[3] = system: Candida albicans ATCC 10231; assay: Antifungal susceptibility testing, microdilution MIC; assay type: cell-based; conditions: Candida albicans, ATCC10231; Table 7; read-out: MIC (μM) C. alb. (10231)
Method in brief: (§1)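 Standard microdilution method, run in duplicate, using serial dilutions of cationic compounds.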

[4] = system: Cryptococcus neoformans ATCC 90112; assay: as above; assay type: cell-based; conditions: Cryptococcus neoformans, ATCC90112; Table 7; read-out: MIC (μM) Crypto. (ATCC 90112)
Method in brief: as §1

[5] = system: MRSA (methicillin resistant S. aureus); assay: In vitro antibacterial activity, NCCLS M7-A6; assay type: cell-based; conditions: Staphylococcus aureus, read-out: MIC MRSA (methicillin resistant S. aureus)
Experimental: (§2) Two bis-cationic compounds were tested for antibacterial activity. The assay used was that published by the National Committee for Clinical Laboratory Standards. 2003. Methods for Dilution Antimicrobial Susceptibility Tests for Bacteria That Grow Aerobically: Approved Standard—Sixth Edition. NCCLS document M7-A6. Villanova, Pa., USA.

[6] = system: Pseudomonas ariginosa 122; assay: In vitro antibacterial activity, NCCLS M7-A6; assay type: cell-based
Experimental: as §2

[7] = system: VRE (Vancomycin resistant Enterococcus); assay: In vitro antibacterial activity, NCCLS M7-A6; assay type: cell-based
Experimental: as §2

[8] = system: Aspergillus flavus ATCC 204 304; assay: In vitro antifungal activity, filamentous fungi, NCCLS M38-A; assay type: cell-based; conditions: Aspergillus flavus, ATCC204
Source text: (§3) The assay used for filamentous fungi (Aspergillus; Scedosporium; Fusarium) was that published by the National Committee for Clinical Laboratory Standards. 2002. Reference Method for Broth Dilution Antifungal Susceptibility Testing of Filamentous Fungi: Approved Standard. NCCLS document M38-A.Villanova, Pa., USA.

[9] = system: Aspergillus fumigatus ATCC 204 305; assay: as above; assay type: cell-based; conditions: Aspergillus fumigatus, ATCC204
Source text: as §3

[10] = system: Aspergillus terreus ATCC 03-232-378; assay: as above; assay type: cell-based; conditions: Aspergillus terreus, ATCC03
Source text: as §3

[11] = system: Fusarium solani 04-132-4207; assay: as above; assay type: cell-based; conditions: Fusarium solani, 041324207
Source text: as §3

[12] = system: Scedosporium apiospermum 1-003-056; assay: as above; assay type: cell-based; conditions: Scedosporium apiospermum, 1003056
Source text: as §3

[13] = system: Scedosporium prolificans 1-003-040; assay: as above; assay type: cell-based; conditions: Lomentospora prolificans, 1003040
Source text: as §3

[14] = system: Candida albicans ATCC 10231; assay: In vitro antifungal activity, yeasts, NCCLS M27-A; assay type: cell-based; conditions: Candida albicans, ATCC10231; Table 9
Source text: (§4) The assay used for yeasts (Candida; Cryptococcus) is that of the National Committee for Clinical Laboratory Standards. 1997. Reference Method for Broth Dilution Antifungal Susceptibility Testing of Yeasts: Approved Standard. NCCLS document M27-A.Villanova, Pa., USA as published in Ghannoum, M. A., A. S. Ibrahim, Y. Fu, M. C. Shafiq, J. E Edwards, Jr. and R. S. Criddle. 1992. Susceptibility testing of Cryptococcus neoformans: A microdilution technique. J. Clin. Microbiol. 30:2881-2886.

[15] = system: Cryptococcus neoformans ATCC 90112; assay: In vitro antifungal activity, yeasts, NCCLS M27-A; assay type: cell-based; conditions: Cryptococcus neoformans, ATCC90112; Table 9
Source text: as §4

Escherichia coli 25922 = assay: In vitro antibacterial activity, NCCLS M7-A6; assay type: cell-based
Experimental: as §2

[16] = system: Staphylococcus aureus 25923; assay: In vitro antibacterial activity, NCCLS M7-A6; assay type: cell-based
Experimental: as §2

[17] = system: Streptococcus pneumonia 49619; assay: In vitro antibacterial activity, NCCLS M7-A6; assay type: cell-based; conditions: Streptococcus pneumoniae
Experimental: as §2

Compound: CCCC[N+](CCCC)(CCCC)CCCCCCCCCCCCCCCC[N+](CCCC)(CCCC)CCCC [1,16-bis-(tributylammonium)hexadecane]
- PLB assay (% inhibition) ([1]; 25 μM): 48%
- PLB assay (% inhibition) ([1]; 250 μM): 62%
- Lyso assay (% inhibition) LPL ([2]; 25 μM): 5%
- Lyso assay (% inhibition) LPTA ([2]; 25 μM): 15%
- Lyso assay (% inhibition) LPL ([2]; 250 μM): 10%
- Lyso assay (% inhibition) LPTA ([2]; 250 μM): 6%
- MIC [3]: 5.5 µM
- MIC [4]: 2.2 µM
- MIC [5]: 5 µg/mL and 11 µM
- MIC [6]: 106 µg/mL and 160 µM
- MIC [7]: 3.6 µg/mL and 5.5 µM
- MIC [8]: 14.6 µg/mL and 22 µM
- MIC [9]: 7.3 µg/mL and 11 µM
- MIC [10]: 7.3 µg/mL and 11 µM
- MIC [11]: 14.6 µg/mL and 22 µM
- MIC [12]: 3.6 µg/mL and 5.5 µM
- MIC [13]: 7.3 µg/mL and 11 µM
- MIC [14]: 7.2 µg/mL and 11 µM
- MIC [15]: 3.6 µg/mL and 5.5 µM

Compound: CC1(C)S[C@@H]2[C@H](NC(=O)[C@H](N)c3ccc(O)cc3)C(=O)N2[C@H]1C(=O)O [amoxicillin, reference compound]
- MIC (Escherichia coli 25922): 8 to 16 µg/mL (≈ 21.9 to 43.8 µM)
- MIC [16]: 0.25 to 0.5 µg/mL (≈ 0.684 to 1.37 µM)
- MIC [17]: 0.06 to 0.12 µg/mL (≈ 0.164 to 0.328 µM)
